According to US11000033B2, “Ketone or oxime compound, and herbicide” (NISSAN CHEMICAL CORPORATION, priority 2014, dated 2021):

Assays:
Assay type in all cases: in vivo
Digitaria ciliaris [1] = experiment: Test Example 4: herbicidal effect by soil treatment (symbol F); settings: application herbicide amount 320 g/ha
How it was run: (§1)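 Seeds were sown in sterilized diluvial soil, covered with about 1.5 cm of soil, and the soil surface was sprayed with a water-diluted emulsion of the compound at a predetermined rate. Plants grew in a greenhouse at 25° C. to 30° C.; effects were scored visually 3 weeks after application.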

beet = experiment: Test Example 5: effect on crop by foliage application, plastic box (symbol f); settings: 320 g/ha, 3 weeks after application
How it was run: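 A greenhouse held between 25° C. and 30° C. was used to grow plants sown spot-wise, beneath ~1.5 cm of soil, in boxes of sterilized diluvial soil.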

Amaranthus retroflexus = experiment: Test Example 4: herbicidal effect by soil treatment (symbol N); settings: application herbicide amount 320 g/ha
How it was run: as §1

Lolium multiflorum Lam. [2] = experiment: Test Example 4: herbicidal effect by soil treatment (symbol K); settings: application herbicide amount 320 g/ha
How it was run: as §1

Stellaria media = experiment: Test Example 5: herbicidal effect by foliage application, plastic box (symbol P); settings: 320 g/ha, 3 weeks after application
How it was run: (§2)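 Greenhouse foliar test: seedlings at 14 days, grown 25° C. to 30° C. in sterilized diluvial soil; compound applied as an aqueous dilution of an emulsion; response read 3 weeks after spraying.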

Lolium multiflorum Lam. [3] = experiment: Test Example 5: herbicidal effect by foliage application, plastic box (symbol K); settings: 320 g/ha, 3 weeks after application
How it was run: as §2

transplanted rice plant = experiment: Test Example 1: effect on crop, application before weed generation in submerged conditions (symbol a); settings: application herbicide amount 320 g/ha
How it was run: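 Rice at 2.5 leaf stage transplanted into submerged soil (4 cm depth) sown with three weed species; herbicide applied before weed emergence.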

Setaria viridis = experiment: Test Example 4: herbicidal effect by soil treatment (symbol G); settings: application herbicide amount 320 g/ha
How it was run: as §1

[4] = system: directly sowed rice plant; experiment: Test Example 3: effect on crop by foliage application, Wagner pot (symbol b); settings: application herbicide amount 320 g/ha
How it was run: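 Alluvial soil in a 1/10000-are Wagner pot was flooded to a water depth of 0.1–0.5 cm. Echinochloa crus-galli var. crus-galli, Leptochloa chinensis, Cyperus difformis and rice were sown into it and grown in a greenhouse at 25–30 °C.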

Veronica persica = experiment: Test Example 4: herbicidal effect by soil treatment (symbol R); settings: application herbicide amount 320 g/ha
How it was run: as §1

Chenopodium album [5] = experiment: Test Example 5: herbicidal effect by foliage application, plastic box (symbol O); settings: 320 g/ha, 3 weeks after application
How it was run: as §2

[6] = system: Echinochloa crus-galli var. crus-galli; experiment: Test Example 3: herbicidal effect by foliage application, Wagner pot (symbol H); settings: application herbicide amount 320 g/ha
How it was run: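 Seeds sown in alluvial soil kept under 0.1–0.5 cm water, greenhouse 25–30 °C; 14 d growth. Leaves treated by small sprayer with water-diluted emulsion at a predetermined rate. Effect graded by set scale, 3 weeks.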

Abutilon theophrasti = experiment: Test Example 5: herbicidal effect by foliage application, plastic box (symbol M); settings: 320 g/ha, 3 weeks after application
How it was run: as §2

Alopecurus myosuroides = experiment: Test Example 5: herbicidal effect by foliage application, plastic box (symbol J); settings: 320 g/ha, 3 weeks after application
How it was run: as §2

Digitaria ciliaris [7] = experiment: Test Example 5: herbicidal effect by foliage application, plastic box (symbol F); settings: 320 g/ha, 3 weeks after application
How it was run: as §2

Galium spurium = experiment: Test Example 4: herbicidal effect by soil treatment (symbol Q); settings: application herbicide amount 320 g/ha
How it was run: as §1

wheat = experiment: Test Example 4: effect on crop by soil treatment (symbol e); settings: application herbicide amount 320 g/ha
How it was run: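 Sterilized diluvial soil, spot sowing, ~1.5 cm soil cover; greenhouse 25–30° C.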

Chenopodium album [8] = experiment: Test Example 4: herbicidal effect by soil treatment (symbol O); settings: application herbicide amount 320 g/ha
How it was run: as §1

Row | Compound | Herbicidal effect grade, F: Digitaria ciliaris (Digitaria ciliaris [1]) | f: beet, effect on crop (criteria of Test Example 1) (beet) | Herbicidal effect grade, N: Amaranthus retroflexus (Amaranthus retroflexus) | Herbicidal effect grade, K: Lolium multiflorum Lam. (Lolium multiflorum Lam. [2]) | P: Stellaria media, herbicidal effect (criteria of Test Example 1) (Stellaria media) | K: Lolium multiflorum Lam., herbicidal effect (criteria of Test Example 1) (Lolium multiflorum Lam. [3]) | Effect grade on crop, a: transplanted rice plant (transplanted rice plant) | Herbicidal effect grade, G: Setaria viridis (Setaria viridis) | effect on crop b (directly sowed rice plant), grade 0-5 [4] | Herbicidal effect grade, R: Veronica persica (Veronica persica) | O: Chenopodium album, herbicidal effect (criteria of Test Example 1) (Chenopodium album [5]) | herbicidal effect on H (Echinochloa crus-galli var. crus-galli), grade 0-5 [6] | M: Abutilon theophrasti, herbicidal effect (criteria of Test Example 1) (Abutilon theophrasti) | J: Alopecurus myosuroides, herbicidal effect (criteria of Test Example 1) (Alopecurus myosuroides) | F: Digitaria ciliaris, herbicidal effect (criteria of Test Example 1) (Digitaria ciliaris [7]) | Herbicidal effect grade, Q: Galium spurium (Galium spurium) | Effect on crop grade, e: wheat (wheat) | Herbicidal effect grade, O: Chenopodium album (Chenopodium album [8]) | further results
1 | CON=C(C)CC1CC(OS(=O)(=O)N(C)C)=C(c2c(C)cc(C)cc2OC)C1=O (stereo not drawn) [6-095] | 5 (Herbicidal ratio of 90% or more (almost completely withered)) | 0 (Herbicidal ratio of 5% or lower (almost no effect)) | 1 (Herbicidal ratio of 5% or higher and lower than 20%) | 5 (Herbicidal ratio of 90% or more (almost completely withered)) | 1 (Herbicidal ratio of 5% or higher and lower than 20%) | 5 (Herbicidal ratio of 90% or more (almost completely withered)) | 5 (Herbicidal ratio of 90% or more (almost completely withered)) | 5 (Herbicidal ratio of 90% or more (almost completely withered)) | 5 (Herbicidal ratio of 90% or more (almost completely withered)) | 0 (Herbicidal ratio of 5% or lower (almost no effect)) | 5 (Herbicidal ratio of 90% or more (almost completely withered)) | 5 (Herbicidal ratio of 90% or more (almost completely withered)) | 4 (Herbicidal ratio of 70% or higher and lower than 90%) | 5 (Herbicidal ratio of 90% or more (almost completely withered)) | 5 (Herbicidal ratio of 90% or more (almost completely withered)) | 0 (Herbicidal ratio of 5% or lower (almost no effect)) | 2 (Herbicidal ratio of 20% or higher and lower than 40%) | 0 (Herbicidal ratio of 5% or lower (almost no effect)) | –
2 | CC(=O)CC1CC(O)=C(c2c(C)cc(Oc3ccc(C(F)(F)F)cn3)cc2C)C1=O (stereo not drawn) [7-019] | 3 (Herbicidal ratio of 40% or higher and lower than 70%) | 0 (Herbicidal ratio of 5% or lower (almost no effect)) | 0 (Herbicidal ratio of 5% or lower (almost no effect)) | 0 (Herbicidal ratio of 5% or lower (almost no effect)) | 0 (Herbicidal ratio of 5% or lower (almost no effect)) | 3 (Herbicidal ratio of 40% or higher and lower than 70%) | 0 (Herbicidal ratio of 5% or lower (almost no effect)) | 2 (Herbicidal ratio of 20% or higher and lower than 40%) | 3 (Herbicidal ratio of 40% or higher and lower than 70%) | 0 (Herbicidal ratio of 5% or lower (almost no effect)) | 0 (Herbicidal ratio of 5% or lower (almost no effect)) | 5 (Herbicidal ratio of 90% or more (almost completely withered)) | 0 (Herbicidal ratio of 5% or lower (almost no effect)) | 2 (Herbicidal ratio of 20% or higher and lower than 40%) | 3 (Herbicidal ratio of 40% or higher and lower than 70%) | 0 (Herbicidal ratio of 5% or lower (almost no effect)) | 0 (Herbicidal ratio of 5% or lower (almost no effect)) | 0 (Herbicidal ratio of 5% or lower (almost no effect)) | –
3 | CON=C(C)CC1CC(O)=C(c2c(C)cc(-c3ncccn3)cc2C)C1=O (mixture of isomers) [6-057] | – | 0 (Herbicidal ratio of 5% or lower (almost no effect)) | – | – | 4 (Herbicidal ratio of 70% or higher and lower than 90%) | 5 (Herbicidal ratio of 90% or more (almost completely withered)) | 5 (Herbicidal ratio of 90% or more (almost completely withered)) | – | 5 (Herbicidal ratio of 90% or more (almost completely withered)) | – | 4 (Herbicidal ratio of 70% or higher and lower than 90%) | 5 (Herbicidal ratio of 90% or more (almost completely withered)) | 1 (Herbicidal ratio of 5% or higher and lower than 20%) | 5 (Herbicidal ratio of 90% or more (almost completely withered)) | 5 (Herbicidal ratio of 90% or more (almost completely withered)) | – | – | – | F: Digitaria ciliaris, herbicidal effect grade (Digitaria ciliaris [1]): 5 (Herbicidal ratio of 90% or more (almost completely withered)); N: Amaranthus retroflexus, herbicidal effect grade (Amaranthus retroflexus): 0 (Herbicidal ratio of 5% or lower (almost no effect)); K: Lolium multiflorum Lam., herbicidal effect grade (Lolium multiflorum Lam. [2]): 5 (Herbicidal ratio of 90% or more (almost completely withered)); G: Setaria viridis, herbicidal effect grade (Setaria viridis): 5 (Herbicidal ratio of 90% or more (almost completely withered)); R: Veronica persica, herbicidal effect grade (Veronica persica): 0 (Herbicidal ratio of 5% or lower (almost no effect)); Q: Galium spurium, herbicidal effect grade (Galium spurium): 0 (Herbicidal ratio of 5% or lower (almost no effect)); e: wheat, effect on crop grade (wheat): 1 (Herbicidal ratio of 5% or higher and lower than 20%); O: Chenopodium album, herbicidal effect grade (Chenopodium album [8]): 0 (Herbicidal ratio of 5% or lower (almost no effect))
4 | CON=C(C)CC1CC(O)=C(c2c(C)cccc2C)C1=O (stereo not drawn) [6-112] | 5 (Herbicidal ratio of 90% or more (almost completely withered)) | 0 (Herbicidal ratio of 5% or lower (almost no effect)) | 1 (Herbicidal ratio of 5% or higher and lower than 20%) | 5 (Herbicidal ratio of 90% or more (almost completely withered)) | 1 (Herbicidal ratio of 5% or higher and lower than 20%) | 5 (Herbicidal ratio of 90% or more (almost completely withered)) | 4 (Herbicidal ratio of 70% or higher and lower than 90%) | 5 (Herbicidal ratio of 90% or more (almost completely withered)) | 5 (Herbicidal ratio of 90% or more (almost completely withered)) | 0 (Herbicidal ratio of 5% or lower (almost no effect)) | 0 (Herbicidal ratio of 5% or lower (almost no effect)) | 5 (Herbicidal ratio of 90% or more (almost completely withered)) | 4 (Herbicidal ratio of 70% or higher and lower than 90%) | 5 (Herbicidal ratio of 90% or more (almost completely withered)) | 5 (Herbicidal ratio of 90% or more (almost completely withered)) | 0 (Herbicidal ratio of 5% or lower (almost no effect)) | 3 (Herbicidal ratio of 40% or higher and lower than 70%) | 0 (Herbicidal ratio of 5% or lower (almost no effect)) | –
